Four compounds from patent US12459951B2, “Compounds that interact with RAS superfamily proteins for treatment of cancers, inflammatory diseases, rasopathies, and fibrotic disease” (SHY Therapeutics, LLC, priority 2022, dated 2025) can be followed below.

Structures are written as SMILES.

Test [1] concerns Smad2/Smad3 phosphorylation. Description: Phospho-Smad2/3 Inhibition Assay (western blot), Panc-1. It counts as cell-based, human. To be noted: at 10 μM, Panc-1 pancreatic cancer cell line; starred symbols = activation. The method, boiled down:
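Panc-1 cells (KRas G12D), starved overnight in 0.5% FBS, treated 3 h at 37° C with compound at 10 μM final (0.3% DMSO) or serial dilutions for IC50, then stimulated with 10 ng/ml TGF-b1 for 1 h. Phospho-Smad2 (Ser465/467) and phospho-Smad3 (Ser423/425) detected by western blot.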
(A western blot detects proteins with antibodies after separation by electrophoresis.)

For a further test, the system named is IL6. Description: IL-6 Quantification Assay (ELISA), LPS-stimulated RAW 264.7. Details: inhibition: dose or concentration left out as unconfirmed. The class given is cell-based. The note with it: Mus musculus, RAW264.7; read-out: IL-6: % inh. In general terms: ELISA stands for enzyme-linked immunosorbent assay.
A further test relates to KRas G12D mutant. The test is described as follows: Ras GTP Binding Domain Inhibition Assay (Ras Superfamily Assay). The note with it: for KRas G12D mutant + SOS: % inh.: with SOS; for KRas G12D mutant: % inh.: without SOS. A digest of the protocol:
(§1)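 Binding of 100 nM fluorescent GTP (Cy3 or Cy5, 45 min, room temperature) was read after washes from plate-captured His-tagged protein. Beforehand, compounds at 20 μM or in dilution series for IC50 sat 3 h on the protein in Tris buffer pH 7.4 or 7.0 with 1% DMSO, Sos GEF optionally added for the last hour.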

The next test relates to KRas wild type. The description is as above. To be noted: for KRas wild type + SOS: % inh.: with SOS; for KRas wild type: % inh.: without SOS. The method, boiled down: as §1
The target in another test is T1, Rac-1 (Homo sapiens, UniProt P63000).
T1 construct: made in house
The test is described as above. The note with it: read-out: Rac-1: % inh. A digest of the protocol: as §1

On to `COc1cc(Nc2nc(-c3nccn3C)nn3cc(-c4cccnc4)c(-c4cccnc4)c23)ncn1` [Compound 170, N-(6-Methoxypyrimidin-4-yl)-2-(1-methyl-1H-imidazol-2-yl)-5,6-di(pyridin-3-yl)pyrrolo[2,1-f][1,2,4]triazin-4-amine], for which the “% inh of Smad2/3 phosphorylation in Panc-1” value (“% inh … in Panc-1” below) in test [1] is recorded as “A (A = 1-25% inhibition)”. Further, in the test with IL6, the inhibition was 50 to 74%. In the test on KRas G12D mutant (20 μM compound), the “KRas G12D mutant + SOS: % inh.” value was “D (D = 76-100% inhibition)” and the “KRas G12D mutant: % inh.” value was “D (D = 76-100% inhibition)”. Also, in the test on KRas wild type (20 μM compound), the “KRas wild type + SOS: % inh.” value is given as “D (D = 76-100% inhibition)” and the “KRas wild type: % inh.” value is reported as “D (D = 76-100% inhibition)”. Further, the inhibition at 20 µM on Rac-1 lay within 76 to 100%.
In the case of `CO[C@H]1C[C@H](Nc2nc(-c3nccn3C)nn3cc(-c4cccnc4)c(-c4cccnc4)c23)C1` [Compound 171, N-((1r,3r)-3-Methoxycyclobutyl)-2-(1-methyl-1H-imidazol-2-yl)-5,6-di(pyridin-3-yl)pyrrolo[2,1-f][1,2,4]triazin-4-amine], in test [1], the “% inh … in Panc-1” value is given as “B (B = 26-45% inhibition)”. In addition, the inhibition with IL6 came out at 0%. Besides, in the test on KRas G12D mutant (20 μM compound), the “KRas G12D mutant + SOS: % inh.” value is listed as “A (A = 1-25% inhibition)” and the “KRas G12D mutant: % inh.” value is reported as “A (A = 1-25% inhibition)”. Besides, in the test with KRas wild type (20 μM compound), the “KRas wild type + SOS: % inh.” value is on record as “B (B = 26-49% inhibition)” and the “KRas wild type: % inh.” value was “A (A = 1-25% inhibition)”. Moreover, on Rac-1, the inhibition at 20 µM lay in the range of 1 to 25%.
For `Cc1c(-c2ccn(C)n2)cn2nc(-c3nccn3C)nc(Nc3ccc(OCC(F)(F)F)cn3)c12` [Compound 230, 5-Methyl-2-(1-methyl-1H-imidazol-2-yl)-6-(1-methyl-1H-pyrazol-3-yl)-N-(5-(2,2,2-trifluoroethoxy)pyridin-2-yl)pyrrolo[2,1-f][1,2,4]triazin-4-amine], the “% inh … in Panc-1” value in test [1] is on record as “D (D = 76-100% inhibition)”. In addition, the inhibition in the test with IL6 lay in the range of 50 to 74%. Moreover, in the test on KRas G12D mutant (at 20 μM), the “KRas G12D mutant + SOS: % inh.” value is listed as “D (D = 76-100% inhibition)” and the “KRas G12D mutant: % inh.” value is “D (D = 76-100% inhibition)”. In the test on KRas wild type (at 20 μM), the “KRas wild type + SOS: % inh.” value is “D (D = 76-100% inhibition)” and the “KRas wild type: % inh.” value is recorded as “D (D = 76-100% inhibition)”. The inhibition at 20 µM at Rac-1 lay within 76 to 100%.
As for `COc1cc(Nc2nc(-c3ccccn3)nn3cc(-c4ccn(C(C)C)n4)c(C)c23)ncn1` [Compound 13, 6-(1-Isopropyl-1H-pyrazol-3-yl)-N-(6-methoxypyrimidin-4-yl)-5-methyl-2-(pyridin-2-yl)pyrrolo[2,1-f][1,2,4]triazin-4-amine], in test [1], the “% inh … in Panc-1” value is given as 0 (0 = 0% inhibition). In the test with IL6, the inhibition was 75 to 100%. Also, in the test with KRas G12D mutant (20 μM compound), the “KRas G12D mutant + SOS: % inh.” value is recorded as 0 (0 = 0% inhibition) and the “KRas G12D mutant: % inh.” value is recorded as “A (A = 1-25% inhibition)”. Further, in the test with KRas wild type (20 μM compound), the “KRas wild type + SOS: % inh.” value is 0 (0 = 0% inhibition) and the “KRas wild type: % inh.” value was “A (A = 1-25% inhibition)”. Besides, at Rac-1, the inhibition at 20 µM was 0%.
